Measurements: ChEMBL document CHEMBL4177646, “Discovery of novel nitroimidazole enols as Pseudomonas aeruginosa DNA cleavage agents” (Bioorg Med Chem, 2017)
Values after ≈ are worked out from the molar mass of the structure shown.

Legend:
Assay type in all cases: functional
Escherichia coli [1] = assay: Antibacterial activity against Escherichia coli ATCC 25922 after 24 hrs by micro broth dilution method; settings: ATCC 25922, 24 h
Pseudomonas aeruginosa [2] = assay: Antibacterial activity against drug-resistant Pseudomonas aeruginosa after 24 hrs by micro broth dilution method
Candida albicans [3] = assay: Antifungal activity against Candida albicans ATCC 90023 after 24 hrs by micro broth dilution method; settings: ATCC 90023, 24 h
Candida tropicalis = assay: Antifungal activity against Candida tropicalis after 24 hrs by micro broth dilution method
Staphylococcus aureus [4] = assay: Antibacterial activity against Staphylococcus aureus ATCC 25923 after 24 hrs by micro broth dilution method; settings: ATCC 25923, 24 h
Staphylococcus aureus [5] = assay: Antibacterial activity against Staphylococcus aureus ATCC 29213 after 24 hrs by micro broth dilution method; settings: ATCC 29213, 24 h
Escherichia coli [6] = assay: Antibacterial activity against drug-resistant Escherichia coli after 24 hrs by micro broth dilution method
Staphylococcus aureus [7] = assay: Antibacterial activity against methicillin-resistant Staphylococcus aureus N315 after 24 hrs by micro broth dilution method; settings: N315, 24 h
Staphylococcus aureus [8] = assay: Antibacterial activity against drug-resistant Staphylococcus aureus after 24 hrs by micro broth dilution method
Pseudomonas aeruginosa [9] = assay: Antibacterial activity against Pseudomonas aeruginosa ATCC 27853 after 24 hrs by micro broth dilution method; settings: ATCC 27853, 24 h
Pseudomonas aeruginosa [10] = assay: Potency index, ratio of metronidazole MIC to compound MIC for Pseudomonas aeruginosa ATCC 27853
Candida albicans [11] = assay: Antifungal activity against drug-resistant Candida albicans after 24 hrs by micro broth dilution method
Pseudomonas aeruginosa [12] = assay: Potency index, ratio of norfloxacin MIC to compound MIC for Pseudomonas aeruginosa ATCC 27853

SMILES | MIC (Escherichia coli [1]) | MIC (Pseudomonas aeruginosa [2]) | MIC (Candida albicans [3]) | MIC (Candida tropicalis) | MIC (Staphylococcus aureus [4]) | MIC (Staphylococcus aureus [5]) | MIC (Escherichia coli [6]) | MIC (Staphylococcus aureus [7]) | MIC (Staphylococcus aureus [8]) | MIC (Pseudomonas aeruginosa [9]) | Ratio (Pseudomonas aeruginosa [10]) | MIC (Candida albicans [11]) | Ratio (Pseudomonas aeruginosa [12])
Cc1ncc([N+](=O)[O-])n1/C(=C/c1ccc(N(C)C)cc1)C(C)O (stereo not drawn) | 810 µM (≈ 256 µg/mL) | 1620 µM (≈ 513 µg/mL) | 64 µg/mL (≈ 202 µM) | 128 µg/mL (≈ 405 µM) | 810 µM (≈ 256 µg/mL) | 1620 µM (≈ 513 µg/mL) | 1620 µM (≈ 513 µg/mL) | 1620 µM (≈ 513 µg/mL) | 1620 µM (≈ 513 µg/mL) | 400 µM (≈ 127 µg/mL) | 7 | 512 µg/mL (≈ 1620 µM) | 4
CC(=O)/C(=C\c1ccc(Cl)cc1)n1c([N+](=O)[O-])cnc1C | 410 µM (≈ 125 µg/mL) | 1640 µM (≈ 501 µg/mL) | 128 µg/mL (≈ 419 µM) | 128 µg/mL (≈ 419 µM) | 1640 µM (≈ 501 µg/mL) | 1640 µM (≈ 501 µg/mL) | 1640 µM (≈ 501 µg/mL) | 1640 µM (≈ 501 µg/mL) | 210 µM (≈ 64.2 µg/mL) | 820 µM (≈ 251 µg/mL) | – | 512 µg/mL (≈ 1670 µM) | –
CC(=O)/C(=C\c1ccccc1)n1c([N+](=O)[O-])cnc1C | 230 µM (≈ 62.4 µg/mL) | 470 µM (≈ 127 µg/mL) | 32 µg/mL (≈ 118 µM) | 128 µg/mL (≈ 472 µM) | 470 µM (≈ 127 µg/mL) | 940 µM (≈ 255 µg/mL) | 940 µM (≈ 255 µg/mL) | 1880 µM (≈ 510 µg/mL) | 940 µM (≈ 255 µg/mL) | 470 µM (≈ 127 µg/mL) | – | 256 µg/mL (≈ 944 µM) | 4 - 16
Cc1ncc([N+](=O)[O-])n1/C(=C/c1ccc(C#N)cc1)C(C)O (stereo not drawn) | 860 µM (≈ 257 µg/mL) | 1710 µM (≈ 510 µg/mL) | 64 µg/mL (≈ 215 µM) | 512 µg/mL (≈ 1720 µM) | 1710 µM (≈ 510 µg/mL) | 1710 µM (≈ 510 µg/mL) | 1710 µM (≈ 510 µg/mL) | 1710 µM (≈ 510 µg/mL) | 1710 µM (≈ 510 µg/mL) | 860 µM (≈ 257 µg/mL) | – | 512 µg/mL (≈ 1720 µM) | –
Cc1ncc([N+](=O)[O-])n1/C(=C/c1ccc(F)cc1)C(C)O (stereo not drawn) | 440 µM (≈ 128 µg/mL) | 880 µM (≈ 256 µg/mL) | 64 µg/mL (≈ 220 µM) | 128 µg/mL (≈ 439 µM) | 880 µM (≈ 256 µg/mL) | 1710 µM (≈ 498 µg/mL) | 1710 µM (≈ 498 µg/mL) | 1760 µM (≈ 513 µg/mL) | 1710 µM (≈ 498 µg/mL) | 110 µM (≈ 32 µg/mL) | – | 512 µg/mL (≈ 1760 µM) | 4 - 16
Cc1ncc([N+](=O)[O-])n1/C(=C/c1ccccc1)C(C)O (stereo not drawn) | 1870 µM (≈ 511 µg/mL) | 940 µM (≈ 257 µg/mL) | 16 µg/mL (≈ 58.5 µM) | 128 µg/mL (≈ 468 µM) | 1870 µM (≈ 511 µg/mL) | 1870 µM (≈ 511 µg/mL) | 1870 µM (≈ 511 µg/mL) | 1870 µM (≈ 511 µg/mL) | 1870 µM (≈ 511 µg/mL) | 230 µM (≈ 62.9 µg/mL) | – | 512 µg/mL (≈ 1870 µM) | 4 - 16
Cc1ncc([N+](=O)[O-])n1/C(=C/c1c[nH]c2ccccc12)C(C)O (stereo not drawn) | 410 µM (≈ 128 µg/mL) | 810 µM (≈ 253 µg/mL) | 128 µg/mL (≈ 410 µM) | 256 µg/mL (≈ 820 µM) | 410 µM (≈ 128 µg/mL) | 810 µM (≈ 253 µg/mL) | 810 µM (≈ 253 µg/mL) | 810 µM (≈ 253 µg/mL) | 1630 µM (≈ 509 µg/mL) | 410 µM (≈ 128 µg/mL) | – | 512 µg/mL (≈ 1640 µM) | 4 - 16
CC(=O)/C(=C\c1ccc(C#N)cc1)n1c([N+](=O)[O-])cnc1C | 860 µM (≈ 255 µg/mL) | 430 µM (≈ 127 µg/mL) | 128 µg/mL (≈ 432 µM) | 256 µg/mL (≈ 864 µM) | 860 µM (≈ 255 µg/mL) | 860 µM (≈ 255 µg/mL) | 1720 µM (≈ 510 µg/mL) | 1720 µM (≈ 510 µg/mL) | 1720 µM (≈ 510 µg/mL) | 860 µM (≈ 255 µg/mL) | – | 256 µg/mL (≈ 864 µM) | –
Cc1ncc([N+](=O)[O-])n1CCO [METRONIDAZOLE] | 2970 µM (≈ 508 µg/mL) | 2970 µM (≈ 508 µg/mL) | – | – | 2970 µM (≈ 508 µg/mL) | 2970 µM (≈ 508 µg/mL) | 2970 µM (≈ 508 µg/mL) | 2970 µM (≈ 508 µg/mL) | 2970 µM (≈ 508 µg/mL) | 2970 µM (≈ 508 µg/mL) | – | – | –
CCn1c2ccccc2c2cc(/C=C(\C(C)O)n3c([N+](=O)[O-])cnc3C)ccc21 (stereo not drawn) | 1310 µM (≈ 511 µg/mL) | 1310 µM (≈ 511 µg/mL) | 512 µg/mL (≈ 1310 µM) | 256 µg/mL (≈ 656 µM) | 1310 µM (≈ 511 µg/mL) | 660 µM (≈ 258 µg/mL) | 1310 µM (≈ 511 µg/mL) | 1310 µM (≈ 511 µg/mL) | 1310 µM (≈ 511 µg/mL) | 1310 µM (≈ 511 µg/mL) | – | 512 µg/mL (≈ 1310 µM) | –
CC(=O)/C(=C\c1ccc(F)cc1)n1c([N+](=O)[O-])cnc1C | 110 µM (≈ 31.8 µg/mL) | 880 µM (≈ 255 µg/mL) | 128 µg/mL (≈ 442 µM) | 256 µg/mL (≈ 885 µM) | 880 µM (≈ 255 µg/mL) | 1760 µM (≈ 509 µg/mL) | 1760 µM (≈ 509 µg/mL) | 1760 µM (≈ 509 µg/mL) | 1760 µM (≈ 509 µg/mL) | 440 µM (≈ 127 µg/mL) | – | 256 µg/mL (≈ 885 µM) | 4 - 16
OC(Cn1cncn1)(Cn1cncn1)c1ccc(F)cc1F [FLUCONAZOLE] | – | – | 8 µg/mL (≈ 26.1 µM) | 256 µg/mL (≈ 836 µM) | – | – | – | – | – | – | – | 8 µg/mL (≈ 26.1 µM) | –
